Assay results from US20050176759A1, “7-sulfonyl-3-benzazepine derivatives as modulators of the dopamine receptor and their use for the treatment cns disorders” (priority 2001, published 2005).

Target: T1, serotonin 5-HT6 receptor (Homo sapiens, UniProt P50406)
T1 construct: expressed in transfected cells
Assay: Binding experiments on cloned 5-HT6 receptors (procedures of WO 98/27081)
From the text: Binding Experiments on Cloned […] Receptors
Compounds can be tested following the procedures outlined in WO 98/27081.

T1 sequence (P50406 whole entry): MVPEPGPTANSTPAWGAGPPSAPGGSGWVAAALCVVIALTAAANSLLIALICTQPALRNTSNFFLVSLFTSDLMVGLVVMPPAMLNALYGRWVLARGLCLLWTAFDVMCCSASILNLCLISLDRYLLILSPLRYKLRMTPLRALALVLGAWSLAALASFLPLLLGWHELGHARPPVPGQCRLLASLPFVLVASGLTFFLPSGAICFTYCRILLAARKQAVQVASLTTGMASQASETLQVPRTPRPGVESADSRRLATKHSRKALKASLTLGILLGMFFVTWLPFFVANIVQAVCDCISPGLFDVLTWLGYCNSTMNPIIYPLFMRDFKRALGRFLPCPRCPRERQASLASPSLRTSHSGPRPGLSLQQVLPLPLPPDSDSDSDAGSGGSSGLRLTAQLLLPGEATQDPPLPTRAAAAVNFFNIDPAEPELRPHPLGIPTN

Ki: 100 to 1000 pM
Compound: O=S(=O)(c1ccc2c(c1)CCNCC2)c1c[nH]c2ccccc12 [Example 43, 7-(3-(1H-indolyl)sulfonyl)-2,3,4,5-tetrahydro-1H-3-benzazepine]
